Format in all cases: in vivo
The subject of experiment [1] is Phakopsora pachyrhizi. In words: Test D: Asian soybean rust, preventive spray on soybean seedlings. Particulars: 100 = 100% disease control, 0 = no control; for pest or weed control at 50 ppm / Test D disease control rating: 50 ppm. From the text:
(§1) General protocol for preparing test suspensions for Tests A-F: the test compounds were first dissolved in acetone in an amount equal to 3% of the final volume and then suspended at the desired concentration (in ppm) in acetone and purified water (50/50 mix by volume) containing 250 ppm of the surfactant PEG400 (polyhydric alcohol esters). The resulting test suspensions were then used in Tests A-F.
The test solution was sprayed to the point of run-off on soybean seedlings. The following day the seedlings were inoculated with a spore suspension of Phakopsora pachyrhizi (the causal agent of Asian soybean rust) and incubated in a saturated atmosphere at 22° C. for 24 h and then moved to a growth chamber at 22° C. for 8 days, after which time visual disease ratings were made.
(§2) A rating of 100 indicates 100% disease control and a rating of 0 indicates no disease control (relative to the controls). A dash (−) indicates the compound was not tested.

Experiment [2] concerns Botrytis cinerea. In words: Test E: tomato Botrytis, preventive spray on tomato seedlings. Particulars: 100 = 100% disease control, 0 = no control; for pest or weed control at 50 ppm / Test E disease control rating: 50 ppm.
Source text: as §1
The test suspension was sprayed to the point of run-off on tomato seedlings. The following day the seedlings were inoculated with a spore suspension of Botrytis cinerea (the causal agent of tomato Botrytis) and incubated in a saturated atmosphere at 20° C. for 48 h, and then moved to a growth chamber at 24° C. for 3 days, after which time visual disease ratings were made.
as §2

For experiment [3], the system named is Septoria tritici. In words: Test A: wheat leaf blotch, preventive spray on wheat seedlings. Particulars: Zymoseptoria tritici, 456 h, 100 = 100% disease control, 0 = no control, read-out: Test A disease control rating.
Source text: as §1
The test solution was sprayed to the point of run-off on wheat seedlings. The following day the seedlings were inoculated with a spore suspension of Septoria tritici (the causal agent of wheat leaf blotch) and incubated in a saturated atmosphere at 24° C. for 48 h, and then moved to a growth chamber at 20° C. for 17 days, after which time disease ratings were made.
as §2

Experiment [4] concerns Puccinia recondita f. sp. tritici. Put plainly: Test B: wheat leaf rust, preventive spray on wheat seedlings. Particulars: 100 = 100% disease control, 0 = no control; for pest or weed control at 50 ppm / Test B disease control rating: 50 ppm.
Source text: as §1
The test solution was sprayed to the point of run-off on wheat seedlings. The following day the seedlings were inoculated with a spore suspension of Puccinia recondita f. sp. tritici (the causal agent of wheat leaf rust) and incubated in a saturated atmosphere at 20° C. for 24 h, and then moved to a growth chamber at 20° C. for 7 days, after which time disease ratings were made.
as §2

The test system of experiment [5] is Alternaria solani. In words: Test F: tomato early blight, preventive spray on tomato seedlings. Particulars: 100 = 100% disease control, 0 = no control; for pest or weed control at 50 ppm / Test F disease control rating: 50 ppm.
Source text: as §1
The test suspension was sprayed to the point of run-off on tomato seedlings. The following day the seedlings were inoculated with a spore suspension of Alternaria solani (the causal agent of tomato early blight) and incubated in a saturated atmosphere at 27° C. for 48 h, and then moved to a growth chamber at 20° C. for 3 days, after which time visual disease ratings were made.
as §2

The subject of experiment [6] is Blumeria graminis f. sp. tritici. In words: Test C: wheat powdery mildew, preventive spray on wheat seedlings. Particulars: 50 ppm, 100 = 100% disease control, 0 = no control.
Source text: as §1
The test suspension was sprayed to the point of run-off on wheat seedlings. The following day the seedlings were inoculated with a spore dust of Blumeria graminis f. sp. tritici, (also known as Erysiphe graminis f. sp. tritici, the causal agent of wheat powdery mildew) and incubated in a growth chamber at 20° C. for 8 days, after which time visual disease ratings were made.
as §2

The mark [7] stands for this setting: 216 h, read-out: Test D disease control rating.
Setting [8] is: 120 h, read-out: Test E disease control rating.
Where [9] appears, read: 192 h, read-out: Test B disease control rating.
The mark [10] stands for this setting: 120 h, read-out: Test F disease control rating.

The structures appear in SMILES notation.

Here are results for nine molecules from US20230148599A1, “FUNGICIDAL MIXTURES CONTAINING PYRAZOLE DERIVATIVES” (FMC Corporation, priority 2020, published 2023).

Consider `Cc1nn(C)c(Nc2c(F)cccc2[N+](=O)[O-])c1-c1ccc(F)cc1F` [Compound 118, 4-(2,4-difluorophenyl)-N-(2-fluoro-6-nitrophenyl)-1,3-dimethyl-1H-pyrazol-5-amine], for which the pest or weed control at 10 ppm in experiment [1] (216 h, 10 ppm, read-out: Test D disease control rating) came out at 0%; in experiment [2] (120 h, 10 ppm, read-out: Test E disease control rating), 99%; in experiment [3] (10 ppm) it was 100%; in experiment [4] (192 h, 10 ppm, read-out: Test B disease control rating) it was 80%; in experiment [5] (120 h, 10 ppm, read-out: Test F disease control rating), 60%. Also, the pest or weed control at 50 ppm in experiment [1] (setting [7]) turned out to be 0%; in experiment [2] (setting [8]), 100%; in experiment [3], 100%; in experiment [4] (setting [9]), 100%; in experiment [5] (setting [10]) it was 99%.
With `Cc1nn(C)c(Nc2c(F)cc(Cl)cc2[N+](=O)[O-])c1-c1ccc(F)cc1Cl` [Compound 121, N-(4-chloro-2-fluoro-6-nitrophenyl)-4-(2-chloro-4-fluorophenyl)-1,3-dimethyl-1H-pyrazol-5-amine], the pest or weed control at 50 ppm in experiment [1] (setting [7]) amounted to 99%; in experiment [2] (setting [8]), 100%; in experiment [3], 100%; in experiment [4] (setting [9]), 100%; in experiment [5] (setting [10]), 100%.
As to `Cc1cc(F)c(Nc2c(-c3ccc(C#N)cc3Cl)c(C)nn2C)c([N+](=O)[O-])c1` [Compound 127, 3-chloro-4-[5-[(2-fluoro-4-methyl-6-nitrophenyl)amino]-1,3-dimethyl-1H-pyrazol-4-yl]benzonitrile], the pest or weed control at 50 ppm in experiment [1] (setting [7]) amounted to 96%; in experiment [2] (setting [8]), 100%; in experiment [3], 100%; in experiment [4] (setting [9]), 99%; in experiment [5] (setting [10]), 100%.
With `Cc1nn(C)c(N(C)c2c(F)cccc2[N+](=O)[O-])c1-c1ccc(F)cc1Cl` [Compound 172], the pest or weed control at 50 ppm in experiment [1] (setting [7]) is 0%; in experiment [2] (setting [8]), 99%; in experiment [3], 100%; in experiment [4] (setting [9]) it was 100%; in experiment [5] (setting [10]), 40%.
For the molecule `CCc1ccc(Nc2c(-c3ccc(F)cc3Cl)c(C)nn2C)c([N+](=O)[O-])c1` [compound 6], the “Test D disease control rating” value in experiment [1] is 0%. Besides, the “Test C disease control rating” value in experiment [6] was 27%. The “Test E disease control rating” value in experiment [2] was 55%. Further, in experiment [4], the “Test B disease control rating” value is recorded as 74%. Also, in experiment [5], the “Test F disease control rating” value is listed as 0%.
Regarding `COc1ccc(Nc2c(-c3c(F)cccc3F)c(C)nn2C)c([N+](=O)[O-])c1` [compound 87], the “Test D disease control rating” value in experiment [1] amounted to 0%. The “Test C disease control rating” value in experiment [6] came out at 98%. Further, the “Test E disease control rating” value in experiment [2] stood at 98%. Further, the “Test B disease control rating” value in experiment [4] is reported as 99%. The “Test F disease control rating” value in experiment [5] was determined as 93%.
Take `COc1ccc(Nc2c(-c3ccc(F)cc3F)c(C)nn2C)c([N+](=O)[O-])c1` [compound 88]: the “Test D disease control rating” value in experiment [1] was 0%. Moreover, the “Test C disease control rating” value in experiment [6] was determined as 84%. Further, the “Test E disease control rating” value in experiment [2] turned out to be 99%. Further, the “Test B disease control rating” value in experiment [4] worked out at 97%. Moreover, in experiment [5], the “Test F disease control rating” value came to 9%.
On to `COc1ccc(Nc2c(-c3c(F)cc(F)cc3Cl)c(C)nn2C)c([N+](=O)[O-])c1` [compound 89], for which the “Test D disease control rating” value in experiment [1] stood at 80%. For the same molecule, the “Test C disease control rating” value in experiment [6] was found to be 99%. The “Test E disease control rating” value in experiment [2] was determined as 99%. Further, the “Test B disease control rating” value in experiment [4] is listed as 100%. In addition, the “Test F disease control rating” value in experiment [5] turned out to be 99%.
For `Cc1ccc(Nc2c(-c3c(F)cc(F)cc3Cl)c(C)nn2C)c([N+](=O)[O-])c1` [compound 106], in experiment [1], the “Test D disease control rating” value stood at 0%. Further, the “Test C disease control rating” value in experiment [6] is 98%. The “Test E disease control rating” value in experiment [2] is 99%. Besides, in experiment [4], the “Test B disease control rating” value came out at 100%. For the same molecule, in experiment [5], the “Test F disease control rating” value is on record as 68%.
